Measured values taken from patent publication EP0971601B1, “DECAFFEINATED MATE EXTRACTS AND THE USE THEREOF” (Sensient Flavors Italy S.R.L., priority 1997, dated 1998).
≈ marks a conversion by molar mass, not a printed value.

How the values were obtained:
[1] = tested on: rat erythrocytes (RBC); assay: UVB-induced lysis of erythrocytes (turbidimetric determination at 710 nm); assay type: cell-based; conditions: Erythrocyte, light or radiation study, 1.5 h, determined at 90 min irradiation, read-out: IC50, UVB-induced hemolysis
Procedure: • Fig.1 - HPLC profile of the decaffeinated aqueous extract of Maté. Chromatographic conditions: reverse phase column LC-18; mobile phase: linear gradient of 100% A (0.0127 N H3PO4/CH3CN/Ethylacetate 96.5'/3/0.5) to 30% B (CH3CN) in 30 min; flow rate: 1 ml/min; detection: UV-DAD 330 nm. […] Experimental conditions: Finnigan LCQ mass spectrometer; reverse phase column LC-18; mobile phase: linear gradient of 100% A (95% ammonium formiate / 5% CH3CN, pH 4.5 with HCOOH) to 30% B (95% CH3CN / 5% ammonium formiate, pH 4.5 with HCOOH) in 30 min; flow rate: 1 ml/min; negative ion detection. […] Values are the means ± S.D. of 5 determinations. • Fig.10 - Protective effect of decaffeinated aqueous extract of Maté on UVB-induced hemolysis. Red blood cells (0.2% suspensions) were exposed to UVB radiation for 210 min in the absence and in presence of different concentrations of decaffeinated aqueous extract of Maté; percentage hemolysis was turbidimetrically determined at 710 nm at 30 min intervals. Values are the means ± S.D. of 5 determinations.
Finally we evaluated in a cellular model (0.2% erythrocyte suspensions) the protective effect of the decaffeinated aqueous extract of Matè on the peroxidative stress induced by UVB exposure (0.4-4 J/cm^2), and monitoring the time-course of hemolysis (turbidimetric determination at 710 nm) at 30 min intervals.

[2] = DPPH stable free radical quenching (loss in absorbance at 517 nm); assay type: biochemical; conditions: methanol solution of DPPH, absorbance 517 nm
From the text: The activity of the extract in quenching the stable free radical DPPH through hydrogen transferring reaction, has been tested by monitoring the loss in absorbance at 517 nm of a methanol solution of DPPH [18] in the presence and the absence of increasing concentrations of Maté extract.

Row | Compound | IC50 [1] | IC50, quenching DPPH radical [2]
1 | O=C(/C=C/c1ccc(O)c(O)c1)O[C@@H]1C[C@](O)(C(=O)O)C[C@@H](O)[C@H]1O [Chlorogenic acid, 3-O-caffeoyl quinic acid] | 3.2 µg/mL (≈ 9.03 µM) | 
2 | O=C1O[C@H]([C@@H](O)CO)C(O)=C1O [ascorbic acid] |  | 19 µg/mL (≈ 108 µM)
3 | vitamin E |  | 19 µg/mL
